# According to ChEMBL document CHEMBL6092142, “Discovery and preclinical profile of YK-2168, a differentiated selective CDK9 inhibitor in clinical development” (Bioorg Med Chem Lett, 2024):
# Experiments:
# [1] = Selectivity index, ratio of IC50 for inhibition of CDK1 (unknown origin) to IC50 for inhibition of CDK9 (unknown origin)
# [2] = Selectivity index, ratio of IC50 for inhibition of CDK2 (unknown origin) to IC50 for inhibition of CDK9 (unknown origin)
# MV4-11 [3] = experiment: Antiproliferative activity against human MV4-11 cells assessed as cell viability; assay type: functional, cell-based
# [4] = target: Cyclin-dependent kinase 1 (Homo sapiens, UniProt P06493); experiment: Inhibition of CDK1 (unknown origin)
# Cyclin-dependent kinase 1, sequence (P06493 whole entry): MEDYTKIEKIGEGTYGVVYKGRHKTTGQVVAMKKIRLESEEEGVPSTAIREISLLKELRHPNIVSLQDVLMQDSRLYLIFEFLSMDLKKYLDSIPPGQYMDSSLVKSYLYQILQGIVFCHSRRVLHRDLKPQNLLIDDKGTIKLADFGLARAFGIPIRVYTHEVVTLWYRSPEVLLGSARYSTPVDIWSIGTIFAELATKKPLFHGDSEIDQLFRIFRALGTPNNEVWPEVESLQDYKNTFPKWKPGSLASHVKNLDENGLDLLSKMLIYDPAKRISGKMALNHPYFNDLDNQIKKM
# [5] = target: Cyclin-dependent kinase 2 (Homo sapiens, UniProt P24941); experiment: Inhibition of CDK2 (unknown origin)
# [6] = Volume of distribution in CD-1 mouse at 2 mg/kg, iv; assay type: ADME, organism-based; conditions: mouse, in vivo, iv, 2 mg/kg
# [7] = Half life in CD-1 mouse at 2 mg/kg, iv; assay type: ADME, organism-based; conditions: mouse, in vivo, iv, 2 mg/kg
# [8] = AUC (0 to 24 hrs) in CD-1 mouse at 2 mg/kg, iv; assay type: ADME, organism-based; conditions: mouse, in vivo, iv, 2 mg/kg
# MV4-11 [9] = experiment: Antitumor activity against human MV4-11 cells xenografted in mouse assessed as tumor growth inhibition at 10 mg/kg, iv measured upto 28 days; assay type: functional; conditions: MV4-11, 672 h, time <= 28 day, read-out: TGI
# [10] = Toxicity in mouse assessed as change in body weight at 10 mg/kg, iv measured upto 28 days; assay type: organism-based; conditions: in vivo, 672 h, time < 28 day
SMILES,Ratio IC50 [1],Ratio IC50 [2],IC50 (MV4-11 [3]) [µM],IC50 [4] [µM],IC50 [5] [µM],Vd [6] [L/kg],t1/2 [7] [min],AUC [8] [µM·h],inhibition in vivo at 10 mg/kg (MV4-11 [9]) [%],Activity [10]
COCCN1CCC(c2cc3c(-c4cnn(CC5CC5)c4)c(Cl)cnc3[nH]2)CC1,146,22.1,0.0638,–,–,–,–,–,–,–
COCC(C)N1CCC(c2cc3c(-c4cnn(CC5CC5)c4)c(Cl)cnc3[nH]2)CC1 (stereo not given),107,41,0.052,–,–,–,–,–,–,–
c1cc(-c2cnn(CC3CC3)c2)c2cc(C3CCNCC3)[nH]c2n1,48.8,51.8,0.252,–,–,–,–,–,–,–
COc1cc(F)ccc1-c1cc(Nc2cc(CS(C)(=N)=O)ccn2)ncc1F (stereo not given) [ENITOCICLIB],–,–,0.0924,0.25,0.231,1.27,26.4,2.686,65,Non-toxic
Clc1cnc2[nH]c(C3CCNCC3)cc2c1-c1cnn(CC2CC2)c1,11.5,14.5,0.0147,–,–,–,–,–,–,–
